Assay results as given in publication PMC5390315 (Scientific Reports, 2017).

Columns and labels:
A549 = assay: Antiproliferative MTT assay, A549; format: cell-based, human; details: Homo sapiens, A549, 72 h, mean ± SE
Protocol: (§1) Human T-cell leukemia (Jurkat) and human B-cell leukemia (SEM and RS4;11) cells were grown in RPMI-1640 medium (Gibco, Milano, Italy). Breast adenocarcinoma (MCF-7), human cervix carcinoma (HeLa), human lung adenocarcinoma (A549) and human colon adenocarcinoma (HT-29) cells were grown in DMEM medium (Gibco, Milano, Italy), all supplemented with 115 units/mL penicillin G (Gibco, Milano, Italy), 115 μg/mL streptomycin (Invitrogen, Milano, Italy), and 10% fetal bovine serum (FBS; Invitrogen, Milano, Italy). Stock solutions (10 mM) of the different compounds were obtained by dissolving them in DMSO. Individual wells of a 96-well tissue culture microtiter plate were inoculated with 100 μL of complete medium containing 8 × 10^3 cells. The plates were incubated at 37 °C in a humidified 5% CO2 incubator for 18 h prior to the experiments. After medium removal, 100 μL of fresh medium containing the test compound at different concentrations was added to each well in triplicate and incubated at 37 °C for 72 h. The percentage of DMSO in the medium never exceeded 0.25%. This was also the maximum DMSO concentration in all cell-based assays described below.

HT-29 = assay: Antiproliferative MTT assay, HT-29; format: cell-based, human; details: Homo sapiens, HT-29, 72 h, mean ± SE
Protocol: as §1

Jurkat = assay: Antiproliferative MTT assay, Jurkat; format: cell-based, human; details: Homo sapiens, Jurkat, 72 h, mean ± SE
Protocol: as §1

RS 4;11 = assay: Antiproliferative MTT assay, RS 4;11; format: cell-based, human; details: Homo sapiens, RS4-11, 72 h, mean ± SE
Protocol: as §1

[1] = tested on: PBL not stimulated with PHA; assay: Cytotoxicity in resting peripheral blood lymphocytes; format: cell-based; details: Homo sapiens, Lymphocyte, 72 h, MTT, mean ± SEM, read-out: IC50 PBLresting
Protocol: (§2) Peripheral blood lymphocytes (PBL) from healthy donors were obtained from human peripheral blood (leucocyte rich plasma- buffy coats) from healthy volunteers using the Lymphoprep (Fresenius KABI Norge AS) gradient density centrifugation.
(§3) After extensive washing, cells were resuspended (1.0 × 10^6 cells/mL) in RPMI-1640 with 10% FBS and incubated overnight. For cytotoxicity evaluations in proliferating PBL cultures, non-adherent cells were resuspended at 5 × 10^5 cells/mL in growth medium, containing 2.5 μg/mL PHA (Irvine Scientific). Different concentrations of the test compounds were added, and viability was determined 72 h later by the MTT test. For cytotoxicity evaluations in resting PBL cultures, non-adherent cells were resuspended (5 × 10^5 cells/mL) and treated for 72 h with the test compounds, as described above.

PBL stimulated with PHA = assay: Cytotoxicity in PHA-stimulated peripheral blood lymphocytes; format: cell-based; details: Homo sapiens, Lymphocyte, 72 h, MTT, mean ± SEM, read-out: IC50 PBLPHA
Protocol: as §2, §3

HUVECs = assay: Cytotoxicity in HUVECs; format: cell-based; details: Homo sapiens, HUVEC; primary HUVECs
Protocol: HUVECs were prepared from human umbilical cord veins, as previously described. The adherent cells were maintained in M200 medium supplemented with LSGS (Low Serum Growth Supplement), containing FBS, hydrocortisone, hEGF, bFGF, heparin, gentamycin/amphotericin (Life Technologies, Monza, Italy). Once confluent, the cells were detached by a trypsin–EDTA solution and used in experiments from the first to sixth passages.

Jurkat cells = assay: ROS production (H2-DCFDA), Jurkat; format: cell-based, human; details: 100 nM, untreated about 4%
HeLa cells [2] = assay: ROS production (H2-DCFDA), HeLa; format: cell-based, human; details: 100 nM, untreated about 4%
HeLa cells [3] = assay: Western blot analysis of cell cycle and apoptosis proteins; format: cell-based, human
Protocol: HeLa cells were incubated in the presence of 4i and, after different times, were collected, centrifuged, and washed two times with ice cold phosphate buffered saline (PBS). The pellet was then resuspended in lysis buffer. After the cells were lysed on ice for 30 min, lysates were centrifuged at 15000× g at 4 °C for 10 min. The protein concentration in the supernatant was determined using the BCA Protein Assay (Pierce, Italy). Equal amounts of protein (10 μg) were resolved using sodium dodecyl sulfate-polyacrylamide gel electrophoresis (SDS-PAGE) (Criterion Precast, BioRad, Italy) and transferred to a PVDF Hybond-P membrane (GE Healthcare). Membranes were blocked with a bovine serum albumin solution (5% in Tween PBS 1X), the membranes being gently rotated overnight at 4 °C. Membranes were then incubated with primary antibodies against caspase-9, PARP, cdc25c, p-H2AX^Ser139, cyclin B, p-cdc2^Tyr15 (all from Cell Signaling) or β-actin (Sigma-Aldrich) for 2 h at room temperature. Membranes were next incubated with peroxidase labeled secondary antibodies for 60 min. All membranes were visualized using ECL Select (GE Healthcare), and images were acquired using an Uvitec-Alliance imaging system (Uvitec, Cambridge, UK). To ensure equal protein loading, each membrane was stripped and reprobed with anti-β-actin antibody.

SMILES: CCOc1ccc(-c2oc(C)nc2-c2cc(OC)c(OC)c(OC)c2)cc1 [Compound 4i, 4-(3,4,5-Trimethoxyphenyl)-5-(4-ethoxyphenyl)-2-methyloxazole]
- IC50 (A549): 0.5 ± 0.1 nM
- IC50 (HT-29): 20.2 ± 8.8 nM
- IC50 (Jurkat): 4.1 ± 1.1 nM
- IC50 (RS 4;11): 2.1 ± 0.2 nM
- IC50 [1]: 14900 ± 3500 nM
- IC50 (PBL stimulated with PHA): 18300 ± 1500 nM
- IC50 (HUVECs): > 100000 nM
- DCF positive cells (ROS production) (Jurkat cells): 25–30%
- DCF positive cells (ROS production) (HeLa cells [2]): 25–30%
- expression of Mcl-1 (HeLa cells [3]; 100 nM): only slightly decreased
- total cdc25c expression (HeLa cells [3]; 100 nM, 24 and 48 h): reduced
- XIAP expression (HeLa cells [3]; 24 and 48 h): significantly reduced
- cyclin B1 expression (HeLa cells [3]; 24 and 48 h, concentration dependent): marked increase
- PARP cleavage (HeLa cells [3]; 50 or 100 nM, 24 and 48 h): appearance of its cleavage fragments
- phosphorylation of γH2A.X (Ser139) (HeLa cells [3]; 48 h): great increase
- expression of phosphorylated cdc2 (HeLa cells [3]; most noticeable at 24 h, 100 nM): decreased
